Data set [1] concerns the target T1, falcipain-2 (Plasmodium falciparum, UniProt Q8I6U4).
T1 construct: gene FP2A
Kind of data set: fluorometric Z-LR-AMC kinetic assay with refolded recombinant enzyme; global fit to mixed inhibition model. Type of data set: biochemical.

The target of data set [2] is T1, falcipain-2. Nature of the data set: fluorometric Z-LR-AMC kinetic assay with refolded recombinant enzyme; global fit to competitive and Morrison equations; reversibility by rapid dilution. Type of data set: biochemical.
The test system of data set [3] is Cc1cc(=O)oc2cc(NC(=O)[C@H](CCCNC(=N)N)NC(=O)[C@H](CC(C)C)NC(=O)OCc3ccccc3)ccc12. Kind of data set: purified protein. As to conditions: accommodates completely within falcipain-2 active site.

T1 sequence (Q8I6U4 244-484): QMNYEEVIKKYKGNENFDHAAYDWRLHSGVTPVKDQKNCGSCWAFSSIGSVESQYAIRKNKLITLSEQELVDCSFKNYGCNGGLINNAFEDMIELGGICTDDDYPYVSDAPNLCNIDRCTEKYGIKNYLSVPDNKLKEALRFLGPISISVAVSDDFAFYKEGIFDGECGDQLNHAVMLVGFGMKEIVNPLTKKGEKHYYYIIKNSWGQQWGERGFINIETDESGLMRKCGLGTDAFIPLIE

For `C=C1c2cccc(O)c2C(=O)C2=C(O)[C@]3(O)C(=O)C(C(N)=O)=C(O)[C@@H](N(C)C)[C@@H]3[C@@H](O)[C@H]12` [methacycline], the Ki on falcipain-2 [1] turned out to be 84.4 ± 6.5 µM. For the compound `CC(C)(F)C[C@H](N[C@@H](c1ccc(-c2ccc(S(C)(=O)=O)cc2)cc1)C(F)(F)F)C(=O)NC1(C#N)CC1` [odanacatib], at falcipain-2 [2], the Ki was determined as 0.0982 ± 0.0102 µM.

As for falcipain-2 (Plasmodium falciparum 3D7), in data set [3], the Km was 4.8 µM.

As usually defined, the Ki is the equilibrium dissociation constant of an inhibitor or competing ligand from its target. In general, Km refers to the substrate concentration at which the rate is half of its maximum.

The record behind these values is publication PMC6691349 (Frontiers in Chemistry, 2019).
